Earlier results, collected in patent US20260014099A1, “SELF-PRESERVING TOPICAL PHARMACEUTICAL COMPOSITIONS COMPRISING DIETHYLENE GLYCOL MONOETHYL ETHER” (priority 2022, published 2026).

| Compound | Water Solubility |
| --- | --- |
| ivermectin | 4 mg/L |
| NC(N)=O [urea] | 1,190,000 mg/liter |
